Earlier results as cited in patent US20240335532A1, “NANOPARTICULATE FORMULATION” (NewImmune II, LLC, priority 2021, published 2024).
Where two headings read alike, the source gives them in different places.

Legend:
[1] = intravenous 0.5 to 5.0 mg/kg, dogs
[2] = test system: influenza; conditions: 50 μg intraperitoneally, with influenza vaccine, mice
[3] = test system: influenza; conditions: topical pre-treatment, young and elderly individuals
[4] = single subcutaneous dose, rats
[5] = intravenous 2 mg/kg/day, gestational Days 6-18, pregnant rabbits
[6] = 30 mg subcutaneous dose, healthy human volunteers
[7] = rats
[8] = 2000 and 5000 mg/kg under occlusion, rabbits
[9] = monkeys
[10] = dermal exposure, mice
[11] = mice

In the case of CC(C)Cn1cnc2c(N)nc3ccccc3c21 [imiquimod, 1-(2-methylpropyl)imidazo[4,5-c]quinolin-4-amine], the “cardiovascular and nervous system effects” value [1] is listed as “produced cardiac stimulation, central nervous system stimulation and some evidence of autonomic nervous system inhibition”, the “humoral immune responses against the virus” value [2] is listed as “significantly expedited and augmented” and the “protection against early lethal viral challenges” value [2] is listed as “conferred significant protection”. For the same compound, the “immunogenicity of influenza vaccination” value [3] was “significantly improves the immunogenicity”, the subcutaneous lethal dose [4] was 20 mg/kg and the “embryofetal toxicity or teratogenicity” value [5] was “No treatment related effects”. For the same compound, the tolerability [6] was “well tolerated”, the single dose toxicity [7] was “high degree of safety” and the “pH of maximum solubility in aqueous solution” value (Britton-Robinson buffer) was at most 2. The aqueous solubility (above pH 6) was “only sparingly soluble”, the “solubility in aqueous solution” value (physiological pH) was “very low solubility” and the dermal toxicity [8] was “no deaths and no signs of toxicity other than mild transient erythema at the application site”. For the same compound, the single dose toxicity [9] was “high degree of safety”, the “incidence of tumors or non-neoplastic lesions” value [10] was “no increase” and the single dose toxicity [11] was “high degree of safety”.
